Test results taken from PMC12648657, “Sc(III) Complexes of 1,4,7-Triazacyclononane-1,4,7-triacetic Acid and Its Monoamides” (Inorganic Chemistry, 2025).

How the values were obtained:
[1] = Potentiometric determination of stability constants of Sc^III complexes; format: physicochemical; settings: for log K, [Sc(L)] + HL ↔ [M(HL)(L)]: I = 0.1 M NMe4Cl, coordination of second ligand molecule
Procedure: Potentiometry was carried out according to the previously published procedures; for the preparation of stock solutions and chemicals, equipment, electrode system calibration, titration procedures and data treatment, see refs – . Throughout the paper, pH means −log[H^+]. The protonation and stability constants were determined in 0.1 M (NMe4)Cl at 25.0 °C with pK w = 13.81. The Sc^III–H3nota system was studied by in-cell titrations from data obtained in the pH range 1.6–12 with ∼40 points per titration and four parallel titrations (c L = 0.004 M, c Sc = 0.004 or 0.002 M). The Sc^III–H2 L ^1 and Sc^III–H2 L ^2 systems were studied by a combination of the out-of-cell and in-cell methods. The out-of-cell method was performed at 1:1 ligand-to-metal ratio (c L = c Sc = 0.004 M, pH 1.5–5.0, 15–25 points per titration), and the in-cell method was performed at 1:1 and 2:1 ligand-to-metal ratios (c L = c Sc = 0.004, pH 5.0–12.0 or until precipitation of hydroxide, 15–20 points per titration; or c L = 0.004 M, c M = 0.002 M, pH 2.0–11.5, ∼40 points per titration). […] Stability constants for the Sc^III–OH^– system were taken from the literature. Protonation constants of ligands were adopted from literature–H3nota: 13.17, 5.74, 3.22, 1.96, 0.70; H2 L ^1 : 13.03, 4.24, 2.04, 0.67; H2 L ^2 : 12.93, 4.91, 2.48, 0.92.
High thermodynamic stability of complexes is an important property of metal complexes used in radio medicine. Thus, stability constants of the Sc^III complexes with the studied chelators were determined by potentiometry. Complexation of Sc^III by H3nota was fast, and thus, it was studied by the direct titration technique (in-cell method). Complexation of Sc^III by H2 L ^1 and H2 L ^2 was slower in the acidic region (pH < 3) and, thus, the batch titrations (out-of-cell method) had to be applied. In addition, the systems were studied in-cell in the neutral and weakly alkaline regions. The strongly alkaline region cannot be studied in the Sc^III–H2 L ^1 and Sc^III–H2 L ^2 systems due to decomposition of the complexes and precipitation of Sc^III hydroxide.

[2] = Solution stability of Sc^III complexes (alkaline solution, excess oxalate); format: physicochemical; settings: slowly decompose in strongly alkaline solutions or under excess oxalate, yielding insoluble Sc^III oxalate or hydroxide
Procedure: The NMR experiments were carried out on the Bruker Avance III 600 (with a cryoprobe), Bruker Avance III HD 400 or Varian VNMRS 300 MHz or Varian Unity Inova-400 spectrometers in 5 mm tubes. Chemical shifts are given in ppm, and the coupling constants are in Hz. All NMR spectra were collected at 25 °C. The shifts were referenced with external standards: 0.1% tBuOH in D2O (^1H δ 1.25 ppm, ^13C δ 30.30 ppm). External reference for ^45Sc was 0.1 M solution of Sc(ClO4)3 in 1 M aq. HClO4. The pH of samples was adjusted with diluted aq. HCl or aq. LiOH (∼0.5%), or maintained with 0.25 M imidazole/HCl buffer. Binary complexes were prepared by mixing solid ligands (typically at a final concentration of 25 mM) with standardized ScCl3 solution in Sc/L 1:1 or 1:2 molar ratios. Ternary complexes with oxalate anions were studied by mixing a lithium(I) oxalate aq. solution (25 mM) and variable amounts of stock solutions (200 mM) of Sc^III complexes with the studied ligands.

[3] = comparison table; literature value; cited from earlier work
[4] = comparison table; literature value; cited from earlier work; remark: listed apart in the source
[5] = Sc^III complexes of other ligands; literature values; cited from earlier work
[6] = comparison table; literature value; cited from earlier work; remark: listed apart in the source
[7] = comparison table; literature value; cited from earlier work; remark: listed apart in the source
[8] = comparison table; literature value; cited from earlier work; remark: listed apart in the source

SMILES	Overall stability constant logβ, Sc + L ⇄ [Sc(L)] ([1]; I = 0.1M (NMe4)Cl, 25 °C)	log K, Sc + L ↔ [Sc(L)] ([1]; I = 0.1M (NMe4)Cl, 25 °C)	log K, [Sc(L)(OH)] + H+ ↔ [M(L)(H2O)] ([1]; I = 0.1M (NMe4)Cl, 25 °C)	log K, [Sc(L)] + HL ↔ [M(HL)(L)] ([1]; 25 °C)	Stability constant log K ML, Cu^II [3]	Stability constant log K ML, Zn^II [4]	log K [M(L)] of Sc^III complex [5]	further results
CCNC(=O)CN1CCN(CC(=O)O)CCN(CC(=O)O)CC1 [H2 L ^1]	16.64(1)	16.64	7.36	2.86	21.37	18.89		Stability of Sc^III complex in solution [2]: limited stability
O=C(O)CN1CCN(CC(=O)O)CCN(Cc2cccc(P(=O)(O)O)n2)CC1 [H4mpatcn-PyP]							21–26	
O=C(O)CN1CCN(Cc2cccc(C(=O)O)n2)CCN(CP(=O)(O)O)CC1 [H4mpatcn-P]							21–26	
O=C([O-])CN(CCN(CC(=O)[O-])CC(=O)[O-])CCN(CC(=O)[O-])CC(=O)[O-].[Sc+3] [[Sc(dtpa)]^2–]							27.43	
O=C([O-])CN1CCN(CC(=O)[O-])CCN(Cc2cccc(C(=O)[O-])n2)CC1.[Sc+3] [[Sc(mpatcn)]]							21–26	
O=C(O)CN1CCN(CC(=O)O)CCN(CC(=O)O)CC1 [H3nota, 1,4,7-Triazacyclononane-1,4,7-triacetic Acid]	19.50(1)	19.50	7.77	3.11	23.33	22.32		Overall stability constant logβ, Sc + 2 L + H+ ⇄ [Sc(HL)(L)] ([1]; I = 0.1M (NMe4)Cl, 25 °C): 35.78(6); Overall stability constant logβ, Sc + L + H2O ⇄ [Sc(L)(OH)] + H+ ([1]; I = 0.1M (NMe4)Cl, 25 °C): 11.73(2); Stability constant log K ML, Sc^III ([1]; comparison table): 19.50; Stability constant log K ML, Ga^III [6]: 29.60; Stability constant log K ML, Cd^II [7]: 17.87; Stability constant log K ML, Pb^II [8]: 18.18
